The record followed here is paper PMC7249047, “Search for ABCB1 Modulators Among 2-Amine-5-Arylideneimidazolones as a New Perspective to Overcome Cancer Multidrug Resistance” (Molecules, 2020).

A short description of series [1]: Cytotoxicity MTT assay, 24 h, PAR cells. Type of series: cell-based. The conditions noted are these: mouse, parental (PAR) L5178 mouse T-cell lymphoma cells, read-out: Cytotoxic effect IC50. On the procedure:
(§1) The cytotoxicity of compounds 7–20 was examined in both aforementioned PAR and MDR mouse T-lymphoma cell lines, using the MTT assay to estimate IC50 values. The selectivity index for cytotoxic action on MDR with respect to PAR cells was calculated (SI, Table 3). […] This range of SI may indicate ABCB1-efflux pump substrate properties for the whole series (7–20), especially distinct in the case of 19 (SI ≤ 0.29), and slightly weaker for 8, 12, 16, and 18.
(§2) L5178 mouse T-cell lymphoma cells (PAR) (ECACC Cat. No. 87111908, obtained from FDA, Silver Spring, MD, USA) were transfected with pHa MDR1/A retrovirus, as previously described by Cornwell et al.. The ABCB1-expressing cell line L5178Y (MDR) was selected by culturing the infected cells with colchicine. The parental L5178 mouse T-cell lymphoma cells and the L5178Y human ABCB1-transfected subline were cultured in McCoy’s 5A medium (Sigma-Aldrich, St Louis, MO, USA) supplemented with 10% heat-inactivated horse serum (Sigma-Aldrich, St Louis, MO, USA), 200 mM L-glutamine (Sigma-Aldrich, St Louis, MO, USA), and a penicillin-streptomycin (Sigma-Aldrich, St Louis, MO, USA) mixture in concentrations of 100 U/L and 10 mg/L, respectively. The cell lines were incubated at 37 °C, in a 5% CO2, 95% air atmosphere.
(§3) Cytotoxicity and antiproliferative assays were performed following the procedure described in the literature. Parental and multidrug-resistant mouse T-lymphoma cells were used to determine the effect of the arylideneimidazolones on the growth of cells. The effects of increasing concentrations of arylideneimidazolones on cell growth were tested in 96-well flat-bottomed microtiter plates. The compounds were diluted in a volume of 100 μL of medium.
(§4) In the case of the mouse T-lymphoma cells, the two-fold serial dilutions were prepared in 100 μL of McCoy’s 5A, horizontally. The parental (PAR) and multidrug-resistant (MDR) mouse T-lymphoma cells were adjusted to a density of 1 × 10^4 cells (for cytotoxic assay) and 6 × 10^3 (for antiproliferative assay) in 100 μL of McCoy’s 5A medium and were added to each well, with the exception of the medium control wells.
(§5) The culture plates were incubated at 37 °C for 24 h (for cytotoxicity assay) and 72 h (for antiproliferative assay); at the end of the incubation period, 20 μL of MTT (thiazolyl blue tetrazolium bromide, Sigma) solution (from a stock solution of 5 mg/mL) were added to each well. After incubation at 37 °C for 4 h, 100 μL of sodium dodecyl sulfate (SDS) (Sigma) solution (10% in 0.01 M HCI) were added to each well and the plates were further incubated at 37 °C overnight. Cell growth was determined by measuring the optical density (OD) at 540/630 nm with a Multiscan EX ELISA reader (Thermo Labsystems, Cheshire, WA, USA).
(§6) Results have been expressed in terms of IC50, defined as the inhibitory dose that reduces the growth of the cells exposed to the tested compounds by 50%, each representing the mean of a minimum of three independent experiments.
Background: Tetrazolium assays rely on reduction of a dye to a coloured formazan, in cell work by metabolically active cells.

Series [2] in a line: Cytotoxicity MTT assay, 24 h, MDR cells. The series is classed as cell-based. The conditions noted are these: mouse; for IC50 at 24 h: MDR cells, MTT, read-out: Cytotoxic effect IC50; for selectivity ratio at 24 h: cytotoxic action on MDR with respect to PAR cells, read-out: SI (selectivity index), cytotoxicity. On the procedure: as §1, §2, §3, §4, §5, §6
The subject of series [3] is parental (PAR) mouse T-lymphoma cells. Put plainly: Antiproliferative MTT assay, 72 h, PAR cells. Type of series: cell-based. The conditions noted are these: read-out: Antiproliferative effect IC50. On the procedure:
(§7) The ABCB1-expressing cell line L5178Y (MDR) was selected by culturing the infected cells with colchicine. The parental L5178 mouse T-cell lymphoma cells and the L5178Y human ABCB1-transfected subline were cultured in McCoy’s 5A medium (Sigma-Aldrich, St Louis, MO, USA) supplemented with 10% heat-inactivated horse serum (Sigma-Aldrich, St Louis, MO, USA), 200 mM L-glutamine (Sigma-Aldrich, St Louis, MO, USA), and a penicillin-streptomycin (Sigma-Aldrich, St Louis, MO, USA) mixture in concentrations of 100 U/L and 10 mg/L, respectively.
as §3, §4
(§8) Cell growth was determined by measuring the optical density (OD) at 540/630 nm with a Multiscan EX ELISA reader (Thermo Labsystems, Cheshire, WA, USA).

For series [4], the system named is multidrug-resistant (MDR) mouse T-lymphoma cells. As to the kind of experiment: Antiproliferative MTT assay, 72 h, MDR cells. The series is classed as cell-based. The conditions noted are these: for SI (selectivity index), antiproliferative: MDR with respect to PAR cells; for IC50: Mus musculus, MDR cells, 72 h, MTT, read-out: Antiproliferative effect IC50. On the procedure:
as §7, §3, §4, §8

The target in series [5] is T1, Pgp (ABCB1) ATPase (Homo sapiens, UniProt P08183).
T1 construct: purchased Promega (Madison, WI, USA)
T1 sequence (P08183 whole entry): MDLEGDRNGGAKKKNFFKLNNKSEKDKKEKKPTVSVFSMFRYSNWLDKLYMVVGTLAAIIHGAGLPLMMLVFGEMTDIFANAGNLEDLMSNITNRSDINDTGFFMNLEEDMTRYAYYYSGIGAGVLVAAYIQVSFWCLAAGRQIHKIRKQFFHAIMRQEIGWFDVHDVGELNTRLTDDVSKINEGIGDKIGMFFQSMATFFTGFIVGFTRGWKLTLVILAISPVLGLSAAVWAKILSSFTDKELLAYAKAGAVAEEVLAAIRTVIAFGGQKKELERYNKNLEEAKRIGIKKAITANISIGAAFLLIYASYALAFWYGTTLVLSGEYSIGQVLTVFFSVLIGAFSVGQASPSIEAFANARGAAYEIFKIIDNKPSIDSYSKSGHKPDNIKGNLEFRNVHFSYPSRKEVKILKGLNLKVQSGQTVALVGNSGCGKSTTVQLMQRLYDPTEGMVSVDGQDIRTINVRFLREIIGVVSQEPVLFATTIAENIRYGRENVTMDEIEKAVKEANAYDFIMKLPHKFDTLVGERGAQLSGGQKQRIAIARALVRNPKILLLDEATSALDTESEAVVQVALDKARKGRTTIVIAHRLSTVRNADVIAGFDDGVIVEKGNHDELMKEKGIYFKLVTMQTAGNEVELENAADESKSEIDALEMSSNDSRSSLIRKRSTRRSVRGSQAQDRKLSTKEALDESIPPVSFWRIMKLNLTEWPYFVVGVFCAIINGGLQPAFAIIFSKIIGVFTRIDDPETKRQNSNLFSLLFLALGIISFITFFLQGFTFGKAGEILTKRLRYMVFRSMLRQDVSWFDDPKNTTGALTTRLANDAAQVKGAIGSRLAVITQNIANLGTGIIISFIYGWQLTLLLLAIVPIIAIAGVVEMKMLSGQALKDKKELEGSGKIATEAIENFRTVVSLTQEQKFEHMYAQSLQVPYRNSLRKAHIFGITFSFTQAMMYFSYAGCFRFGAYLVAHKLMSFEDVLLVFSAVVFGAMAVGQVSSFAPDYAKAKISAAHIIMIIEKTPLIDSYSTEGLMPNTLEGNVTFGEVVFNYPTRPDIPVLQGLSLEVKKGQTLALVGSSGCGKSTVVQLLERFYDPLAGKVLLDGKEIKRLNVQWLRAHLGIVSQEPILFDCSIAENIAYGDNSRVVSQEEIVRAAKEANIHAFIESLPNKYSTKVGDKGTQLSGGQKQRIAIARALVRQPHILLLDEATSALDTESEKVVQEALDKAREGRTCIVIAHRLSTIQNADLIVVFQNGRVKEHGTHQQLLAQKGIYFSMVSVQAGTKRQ
Put plainly: Luminescent Pgp-Glo Assay (Pgp ATPase intrinsic activity). The series is classed as biochemical. The conditions noted are these: 100 µM, 40 min, 37 °C; substrates stimulate basal activity (>100%). On the procedure:
Compounds 11, 12, and 18 were tested at 100 µM on their influence on the ATPase activity of the Pgp pump in the luminescence Pgp-Glo™ Assay, according to previously described methods and protocols. In this assay, luminescence was measured. The Pgp-dependent decreases in luminescence reflect the ATP consumption by Pgp. […] Thus, inhibitors give results <100% of the basal activity, while stimulators/substrates cause a statistically significant increase in the basal activity. […].
The luminescent Pgp-Glo™ Assay System used for determination of the arylideneimidazolone influence on P-glycoprotein activity was purchased from Promega (Madison, WI, USA). The assay was performed in triplicate as described previously. […]. For basal P-gp activity calculation, the membranes were incubated with 100 µM of Na3VO4. The luminescence signal was measured by a microplate reader EnSpire PerkinElmer (Waltham, MA, USA). The statistical significances were calculated using GraphPad Prism 8.0.1 software.

The target in series [6] is ABCB1 efflux pump (Homo sapiens, UniProt P08183). Put plainly: Rhodamine 123 accumulation assay (flow cytometry). The conditions noted are these: for FAR Quotient (%): FAR of compound related to FAR of VER tested at 20 µM; for FAR (fluorescence activity ratio): rhodamine 123 accumulation, MDR vs PAR mouse T-lymphoma cells.
Sequence of ABCB1 efflux pump (P08183 whole entry): as above
Procedure: The study was carried out on mouse T-lymphoma cell lines, including the parental sensitive line (PAR) and its multidrug-resistant subline (MDR) transfected with the human MDR1 (ABCB1) gene. […] The fluorescence activity ratio (FAR), as a measure of the efflux pump modulating properties, was calculated based on the fluorescence data obtained [23, 24, 25]. […] The parental L5178 mouse T-cell lymphoma cells and the L5178Y human ABCB1-transfected subline were cultured in McCoy’s 5A medium (Sigma-Aldrich, St Louis, MO, USA) supplemented with 10% heat-inactivated horse serum (Sigma-Aldrich, St Louis, MO, USA), 200 mM L-glutamine (Sigma-Aldrich, St Louis, MO, USA), and a penicillin-streptomycin (Sigma-Aldrich, St Louis, MO, USA) mixture in concentrations of 100 U/L and 10 mg/L, respectively.
The potency of the tested compounds as inhibitors of the ABCB1 efflux pump was determined using a fluorescence-based detection system, described previously in the literature [23, 26]. […] The parental (PAR) and multidrug-resistant (MDR) mouse T-lymphoma cells were adjusted to a density of 2 × 10^6/mL, re-suspended in serum-free McCoy’s 5A medium, and distributed in 0.5 mL aliquots into Eppendorf centrifuge tubes. […] The fluorescence intensity of the cell population was measured with a Partec CyFlow flow cytometer (Partec, Munster, Germany). […] The mean fluorescence intensity (%) was calculated for the treated MDR and PAR mouse T-lymphoma cells as compared to the untreated cells.
Setting [7] is: concentration 20 µM, VER values for assay group 1 / 2.

`Cl.O=C1N=C(N2CCC(N3CCOCC3)CC2)N/C1=C\c1ccc2c(c1)Cc1ccccc1-2` [Compound 12, (Z)-5-((9H-Fluoren-2-yl)methylene)-2-(4-morpholinopiperidin-1-yl)-imidazol-4(5H)-one hydrochloride]: the melting point (usually the temperature of the solid-liquid transition) fell in the range of 274 to 276 °C. Besides, the IC50 (commonly the concentration that gives 50% inhibition) at 24 h in series [1] stood at 15.8 µM. In series [2], the IC50 at 24 h turned out to be 30.8 µM and the selectivity ratio at 24 h is 0.51. Further, in series [3], the IC50 was found to be 12.7 µM. Besides, in series [4], the “SI (selectivity index), antiproliferative” value (“SI (selectivity index)” below) amounted to 0.78 and the IC50 amounted to 16.2 µM. Also, the “effect on ABCB1 basal activity (Pgp ATPase)” value in series [5] is “increased the basal activity”. In series [6] (concentration 2 µM), the “FAR Quotient (%)” value worked out at 8.88% and the “FAR (fluorescence activity ratio)” value was found to be 1.161. Moreover, in series [6] (concentration 20 µM), the “FAR Quotient (%)” value is 46.23%. The “FAR (fluorescence activity ratio)” value in series [6] (setting [7]) turned out to be 6.045.

Compound `Cl.NC1=N/C(=C\c2ccc(-c3ccccc3)cc2)C(=O)N1CCCN1CCOCC1` [Compound 15, (Z)-5-(Biphen-4-ylmethylene)-2-amino-3-(3-morpholinopropyl)-imidazol-4(5H)-one hydrochloride] displayed a melting point of 248 to 252 °C. In addition, the IC50 at 24 h in series [1] was 17.5 µM. Further, in series [2], the IC50 at 24 h came to 20.8 µM and the selectivity ratio at 24 h was determined as 0.84. Moreover, the IC50 in series [3] amounted to 10.3 µM. For the same compound, in series [4], the “SI (selectivity index)” value is on record as 0.75 and the IC50 is 13.6 µM. In series [6] (concentration 2 µM), the “FAR Quotient (%)” value came out at 6.78% and the “FAR (fluorescence activity ratio)” value is listed as 0.887. Further, the “FAR Quotient (%)” value in series [6] (concentration 20 µM) is on record as 16.98%. For the same compound, the “FAR (fluorescence activity ratio)” value in series [6] (setting [7]) was 2.221.

As to `Cl.NC1=N/C(=C\c2ccc(Oc3ccccc3)cc2)C(=O)N1CCCN1CCOCC1` [Compound 17, (Z)-5-(4-Phenoxybenzylidene)-2-amino-3-(3-morpholinopropyl)-imidazol-4(5H)-one hydrochloride], the melting point lay within 210 to 212 °C. The IC50 at 24 h in series [1] turned out to be 21.5 µM. Also, in series [2], the IC50 at 24 h is 23.4 µM and the selectivity ratio at 24 h stood at 0.92. In series [3], the IC50 is 12.2 µM. In series [4], the “SI (selectivity index)” value was 0.85 and the IC50 worked out at 14.2 µM. In series [6] (concentration 2 µM), the “FAR Quotient (%)” value is reported as 5.80% and the “FAR (fluorescence activity ratio)” value is recorded as 0.929. The “FAR Quotient (%)” value in series [6] (concentration 20 µM) came to 14.37%. The “FAR (fluorescence activity ratio)” value in series [6] (setting [7]) is on record as 2.301.

Regarding `Cl.NC1=N/C(=C\c2cc3ccccc3c3ccccc23)C(=O)N1CCCN1CCOCC1` [Compound 20, (Z)-5-(Phenanthren-9-ylmethylene)-2-amino-3-(3-morpholinopropyl)-imidazol-4(5H)-one hydrochloride], the melting point is 238 to 240 °C. In addition, the half-maximal inhibitory concentration (IC50) at 24 h in series [1] came out at 19.6 µM. In addition, in series [2], the half-inhibitory concentration (IC50) at 24 h was 24.9 µM and the selectivity ratio at 24 h is 0.79. Further, the IC50 in series [3] is 14.8 µM. Moreover, in series [4], the “SI (selectivity index)” value came out at 0.85 and the IC50 stood at 17.3 µM. Besides, in series [6] (concentration 2 µM), the “FAR Quotient (%)” value came to 5.59% and the “FAR (fluorescence activity ratio)” value is 0.896. In series [6] (concentration 20 µM), the “FAR Quotient (%)” value was determined as 7.72%. For the same compound, the “FAR (fluorescence activity ratio)” value in series [6] (setting [7]) worked out at 1.237.
